Read-outs that look alike come from different tables or passages of the source. Each block holds one compound with its values, some of them ahead of it.
Experiments:
[1] = format: physicochemical; conditions: pH 7.4
Source text: Radiolabeling for preclinical experiments and determination of n-octanol–PBS distribution coefficients (log D7.4) was done as described. Applying this protocol, 5 nmol (0.5 nmol for cellular assays in order to maximize molar activity) of TRAP(AvB6)3 or Trivehexin were labeled with ^68 Ga at pH 2, resulting in RCY > 95%. The purity of the radiolabeled compounds was confirmed by radio-TLC, using silica impregnated glass fiber chromatography paper (ITLC® by Agilent) as stationary phase and 0.1 M aq. sodium citrate as mobile phase (purities were > 99%).

in vivo = conditions: SCID, mouse, total radioactivity
Source text: All animal experiments were approved by the responsible authority (Regierung von Oberbayern) and have been performed in accordance with general animal welfare regulations in Germany and the institutional guidelines for the care and use of animals. Keeping of the animals, generation of subcutaneous H2009 and MDA-MB-231 tumor xenografts, ex-vivo biodistribution studies, and µPET imaging were done according to previously described protocols. Multiplicity of PET and biodistribution studies ranged from 3 to 5; animal numbers for each individual experiment are denoted in the respective data tables in the Supporting Information and, additionally, in the Results section.

αvβ6-integrin [2] = biological target: T1, αvβ6-integrin (Homo sapiens, UniProt P06756+P18564); conditions: cited from earlier work
αvβ6-integrin [3] = biological target: T1, αvβ6-integrin; experiment: ELISA on immobilized integrins (integrin affinity), αvβ6; format: binding; conditions: 95% confidence interval in parentheses
Source text: (§1) Materials, reagents, general procedures, and instrumentation used for chemical syntheses and analyses have been detailed elsewhere. In addition to what has been reported before, the building block TRAP(azide)3 was purchased from Fosfinos s.r.o. (Kladno, CZ). c[FGDLAFp(NMe)K(pentynoic amide)] and TRAP(AvB6)3 were synthesized according to the literature. Previously described protocols were followed for determination of integrin affinities by ELISA on immobilized integrins and for β6-integrin immunohistochemistry (IHC).

αvβ8-integrin = αvβ8-integrin (Homo sapiens, UniProt P06756+P26012); experiment: ELISA on immobilized integrins (integrin affinity), αvβ8; format: binding; conditions: for IC50: 95% confidence interval in parentheses; for αvβ6-selectivity over αvβ8: IC50-based factor
Source text: as §1

αvβ3-integrin = αvβ3-integrin (Homo sapiens, UniProt P05106+P06756); experiment: ELISA on immobilized integrins (integrin affinity), αvβ3; format: binding; conditions: for IC50: 95% confidence interval in parentheses; for αvβ6-selectivity over αvβ3: IC50-based factor
Source text: as §1

α5β1-integrin = α5β1-integrin (Homo sapiens, UniProt P05556+P08648); experiment: ELISA on immobilized integrins (integrin affinity), α5β1; format: binding; conditions: for αvβ6-selectivity over α5β1: IC50-based factor
Source text: as §1

[4] = test system: αvβ6-integrin expressing carcinomas; experiment: PET/CT imaging of carcinomas in human (HNSCC, parotideal adenocarcinoma, PDAC); format: in vivo
Method: All human participants provided written informed consent, also for publication of images, prior to the investigation. […] No significant changes in vital signs or the results of laboratory studies or electrocardiograms were observed. Data for a total of 4 human subjects were included in this report. The PET/CT for patient #1 was performed according to a previously published protocol, as was calculation of the dosimetric parameters.
A panendoscopy and tracheostomy were carried out 4 weeks prior to the [^18F]FDG. The tumor was not suitable for surgical removal and a simultaneous radiochemotherapy was indicated.
Patient #3 (Fig. 4C–E) was diagnosed with an adenocarcinoma (salivary duct carcinoma) in the right […] in 2019 and initially underwent total parotidectomy and unilateral neck dissection (pT2 pN1b [21/23] L1 V1 Pn1 R1). A post-resection and contralateral neck-dissection was performed 1 month later, followed by adjuvant radiation. In 2020 the patient developed prelaryngeal and lateral orbita angle metastases, which were resected and adjuvantly irradiated. […] Since no further tumor manifestations were present in both examinations, surgical resection was indicated and performed. β6-integrin IHC [21] was done for specimen of the excised metastasis.
Patient #4 was diagnosed with a carcinoma of the pancreatic head by endosonography and CT morphology. Pancreatic adenocarcinoma was verified by biopsy. […] According to this finding, surgical treatment was rejected and a chemotherapy regimen was started.

[5] = ref [34], read-out: IC50 (αvβ6-integrin affinity)

Sequence of αvβ3-integrin (P06756 31-1048): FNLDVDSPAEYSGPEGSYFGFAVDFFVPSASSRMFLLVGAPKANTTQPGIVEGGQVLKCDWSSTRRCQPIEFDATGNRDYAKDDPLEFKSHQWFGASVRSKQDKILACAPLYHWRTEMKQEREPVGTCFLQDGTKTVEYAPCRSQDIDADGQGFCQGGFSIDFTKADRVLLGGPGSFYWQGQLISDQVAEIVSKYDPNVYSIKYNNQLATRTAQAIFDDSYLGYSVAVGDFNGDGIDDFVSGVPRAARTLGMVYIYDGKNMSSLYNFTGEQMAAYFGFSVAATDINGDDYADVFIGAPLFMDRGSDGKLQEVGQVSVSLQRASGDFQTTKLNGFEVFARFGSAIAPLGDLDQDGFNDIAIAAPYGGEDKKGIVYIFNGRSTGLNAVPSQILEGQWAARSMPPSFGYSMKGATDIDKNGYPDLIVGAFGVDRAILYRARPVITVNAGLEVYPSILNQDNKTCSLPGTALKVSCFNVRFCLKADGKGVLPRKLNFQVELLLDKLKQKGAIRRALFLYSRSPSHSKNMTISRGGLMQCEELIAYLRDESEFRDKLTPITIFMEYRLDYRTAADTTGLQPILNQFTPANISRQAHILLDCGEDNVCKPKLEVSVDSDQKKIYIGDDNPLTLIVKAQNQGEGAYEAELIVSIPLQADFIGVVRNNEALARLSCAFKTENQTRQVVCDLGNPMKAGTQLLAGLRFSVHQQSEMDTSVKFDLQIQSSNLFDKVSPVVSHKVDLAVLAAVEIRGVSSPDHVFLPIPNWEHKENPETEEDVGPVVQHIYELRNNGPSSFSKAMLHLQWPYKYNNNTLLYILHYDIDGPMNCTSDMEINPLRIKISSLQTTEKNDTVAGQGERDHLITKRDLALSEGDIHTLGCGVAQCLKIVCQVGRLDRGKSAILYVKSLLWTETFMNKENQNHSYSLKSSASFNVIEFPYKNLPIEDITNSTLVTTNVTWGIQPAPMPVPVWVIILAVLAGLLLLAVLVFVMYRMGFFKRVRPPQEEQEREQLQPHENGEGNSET
Sequence of αvβ3-integrin (P05106 27-788): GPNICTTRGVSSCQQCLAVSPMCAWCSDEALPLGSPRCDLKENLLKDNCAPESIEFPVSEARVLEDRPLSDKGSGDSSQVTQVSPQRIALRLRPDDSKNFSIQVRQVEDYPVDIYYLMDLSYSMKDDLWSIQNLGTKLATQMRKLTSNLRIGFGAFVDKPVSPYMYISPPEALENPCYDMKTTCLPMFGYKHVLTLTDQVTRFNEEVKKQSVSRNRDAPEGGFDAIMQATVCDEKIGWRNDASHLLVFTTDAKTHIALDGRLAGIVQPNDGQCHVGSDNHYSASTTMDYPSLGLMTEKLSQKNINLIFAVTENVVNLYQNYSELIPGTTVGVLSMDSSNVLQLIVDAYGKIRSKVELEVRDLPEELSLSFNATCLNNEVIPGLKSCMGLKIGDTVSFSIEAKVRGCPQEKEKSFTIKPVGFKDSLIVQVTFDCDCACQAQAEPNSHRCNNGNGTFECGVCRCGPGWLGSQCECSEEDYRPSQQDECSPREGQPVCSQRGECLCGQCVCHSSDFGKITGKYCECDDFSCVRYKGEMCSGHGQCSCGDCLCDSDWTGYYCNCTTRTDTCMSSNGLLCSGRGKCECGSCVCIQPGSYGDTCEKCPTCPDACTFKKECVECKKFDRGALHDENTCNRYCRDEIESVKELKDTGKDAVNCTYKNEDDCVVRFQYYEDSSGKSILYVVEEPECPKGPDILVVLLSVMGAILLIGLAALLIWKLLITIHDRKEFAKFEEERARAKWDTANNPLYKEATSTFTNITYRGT
Sequence of αvβ8-integrin (P06756 31-992 limits assumed): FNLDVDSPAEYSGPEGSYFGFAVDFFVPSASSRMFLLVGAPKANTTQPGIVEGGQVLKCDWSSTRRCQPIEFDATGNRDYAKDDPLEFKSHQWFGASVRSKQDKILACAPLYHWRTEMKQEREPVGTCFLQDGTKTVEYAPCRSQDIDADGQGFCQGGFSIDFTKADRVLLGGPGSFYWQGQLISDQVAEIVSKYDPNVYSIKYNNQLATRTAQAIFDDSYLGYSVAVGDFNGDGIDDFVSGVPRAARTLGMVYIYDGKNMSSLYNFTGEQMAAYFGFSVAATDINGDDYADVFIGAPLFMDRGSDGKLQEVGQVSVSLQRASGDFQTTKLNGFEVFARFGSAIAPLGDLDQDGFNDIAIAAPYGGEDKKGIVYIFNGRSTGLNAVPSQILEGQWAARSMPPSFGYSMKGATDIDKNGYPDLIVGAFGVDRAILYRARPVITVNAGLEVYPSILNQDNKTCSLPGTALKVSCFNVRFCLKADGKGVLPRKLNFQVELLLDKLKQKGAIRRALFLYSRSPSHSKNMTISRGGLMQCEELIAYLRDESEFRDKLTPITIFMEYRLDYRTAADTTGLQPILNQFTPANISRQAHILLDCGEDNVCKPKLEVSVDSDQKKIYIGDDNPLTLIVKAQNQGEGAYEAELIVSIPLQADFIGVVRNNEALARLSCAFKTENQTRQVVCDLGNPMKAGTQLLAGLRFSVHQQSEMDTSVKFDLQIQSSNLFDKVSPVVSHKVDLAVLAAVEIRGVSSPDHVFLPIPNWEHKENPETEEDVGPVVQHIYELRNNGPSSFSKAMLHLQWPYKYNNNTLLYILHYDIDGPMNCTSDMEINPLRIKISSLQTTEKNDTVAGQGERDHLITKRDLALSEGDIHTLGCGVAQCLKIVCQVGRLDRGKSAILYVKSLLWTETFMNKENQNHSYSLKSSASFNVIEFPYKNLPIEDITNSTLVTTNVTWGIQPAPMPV
Sequence of αvβ8-integrin (P26012 43-684 limits assumed): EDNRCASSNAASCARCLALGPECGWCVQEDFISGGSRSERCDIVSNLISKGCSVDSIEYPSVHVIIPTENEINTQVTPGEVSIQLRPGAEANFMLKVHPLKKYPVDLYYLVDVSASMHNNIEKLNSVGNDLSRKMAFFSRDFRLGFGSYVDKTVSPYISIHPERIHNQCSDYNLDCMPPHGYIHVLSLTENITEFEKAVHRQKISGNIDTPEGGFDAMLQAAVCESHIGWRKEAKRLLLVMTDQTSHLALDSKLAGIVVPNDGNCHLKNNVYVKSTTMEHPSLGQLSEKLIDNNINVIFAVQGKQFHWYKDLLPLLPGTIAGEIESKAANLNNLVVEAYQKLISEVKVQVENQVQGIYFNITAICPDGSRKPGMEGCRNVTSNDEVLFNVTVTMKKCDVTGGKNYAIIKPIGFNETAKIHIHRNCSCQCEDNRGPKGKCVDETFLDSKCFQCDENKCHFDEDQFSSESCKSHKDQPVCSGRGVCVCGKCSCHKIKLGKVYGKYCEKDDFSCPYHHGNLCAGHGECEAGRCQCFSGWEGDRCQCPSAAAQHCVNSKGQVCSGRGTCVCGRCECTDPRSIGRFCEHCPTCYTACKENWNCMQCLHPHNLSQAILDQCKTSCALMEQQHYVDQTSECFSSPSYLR
T1 sequence (P06756 31-992 limits assumed): as the sequence (P06756 31-992 limits assumed) above
T1 sequence (P18564 22-707 limits assumed): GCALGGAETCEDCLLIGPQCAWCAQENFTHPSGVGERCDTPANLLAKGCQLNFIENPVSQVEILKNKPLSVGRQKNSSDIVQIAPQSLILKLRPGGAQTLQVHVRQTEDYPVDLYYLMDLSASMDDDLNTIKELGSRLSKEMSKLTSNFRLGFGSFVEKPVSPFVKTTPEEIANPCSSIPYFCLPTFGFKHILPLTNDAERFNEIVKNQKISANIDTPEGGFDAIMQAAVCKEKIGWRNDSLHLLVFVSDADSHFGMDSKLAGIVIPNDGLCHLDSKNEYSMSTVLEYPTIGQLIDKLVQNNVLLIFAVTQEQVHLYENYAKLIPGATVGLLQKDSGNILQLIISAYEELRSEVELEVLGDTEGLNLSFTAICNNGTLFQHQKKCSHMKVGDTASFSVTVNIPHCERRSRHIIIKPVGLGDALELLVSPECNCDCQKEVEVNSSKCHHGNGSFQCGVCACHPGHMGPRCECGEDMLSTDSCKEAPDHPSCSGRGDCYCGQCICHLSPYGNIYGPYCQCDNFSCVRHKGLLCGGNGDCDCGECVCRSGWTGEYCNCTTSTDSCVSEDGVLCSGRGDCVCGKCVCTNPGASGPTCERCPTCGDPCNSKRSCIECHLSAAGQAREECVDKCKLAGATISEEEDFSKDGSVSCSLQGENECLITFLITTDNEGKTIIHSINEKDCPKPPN

Compound: CC(C)C[C@@H]1NC(=O)[C@H](CC(=O)O)NC(=O)CNC(=O)[C@H](CCCNC(=N)N)NC(=O)[C@H](Cc2ccccc2)NC(=O)[C@H](CCCCNC(=O)CCc2cn(CCCNC(=O)CCP(=O)(O)CN3CCN(CP(=O)(O)CCC(=O)NCCCn4cc(CCC(=O)NCCCC[C@H]5C(=O)N[C@@H](Cc6ccccc6)C(=O)N[C@@H](CCCNC(=N)N)C(=O)NCC(=O)N[C@@H](CC(=O)O)C(=O)N[C@@H](CC(C)C)C(=O)N[C@@H](C)C(=O)N[C@@H](Cc6ccccc6)C(=O)N6CCC[C@@H]6C(=O)N5C)nn4)CCN(CP(=O)(O)CCC(=O)NCCCn4cc(CCC(=O)NCCCC[C@H]5C(=O)N[C@@H](Cc6ccccc6)C(=O)N[C@@H](CCCNC(=N)N)C(=O)NCC(=O)N[C@@H](CC(=O)O)C(=O)N[C@@H](CC(C)C)C(=O)N[C@@H](C)C(=O)N[C@@H](Cc6ccccc6)C(=O)N6CCC[C@@H]6C(=O)N5C)nn4)CC3)nn2)N(C)C(=O)[C@H]2CCCN2C(=O)[C@H](Cc2ccccc2)NC(=O)[C@H](C)NC1=O [^68 Ga-TRAP(AvB6)3]
n-octanol-PBS distribution coefficient log D7.4 [1]: − 1.5 ± 0.1
tissue to tissue ratio at 1.5 h (in vivo; tumor/organ ratio Adrenals): 3.7
tissue to tissue ratio at 1.5 h (in vivo; tumor/organ ratio Blood): 2.2
tissue to tissue ratio at 1.5 h (in vivo; tumor/organ ratio Heart (myocard)): 4.2
tissue to tissue ratio at 1.5 h (in vivo; tumor/organ ratio Kidneys): 0.1
tissue to tissue ratio at 1.5 h (in vivo; tumor/organ ratio Large intestine (empty)): 1.6
tissue to tissue ratio at 1.5 h (in vivo; tumor/organ ratio Liver): 1.2
tissue to tissue ratio at 1.5 h (in vivo; tumor/organ ratio Lung): 0.6
tissue to tissue ratio at 1.5 h (in vivo; tumor/organ ratio Muscle): 8.1
tissue to tissue ratio at 1.5 h (in vivo; tumor/organ ratio Pancreas): 10.1
tissue to tissue ratio at 1.5 h (in vivo; tumor/organ ratio Small intestine (empty)): 2.2
tissue to tissue ratio at 1.5 h (in vivo; tumor/organ ratio Spleen): 1.7
tissue to tissue ratio at 1.5 h (in vivo; tumor/organ ratio Stomach (empty)): 0.9
IC50 (αvβ6-integrin [2]; ref [17], read-out: αvβ6-integrin affinity): 0.023 nM

Compound: c[FRGDLAYp(NMe)K] (FRGDLAYPK; HELM PEPTIDE1{F.R.G.D.L.A.Y.[dP].[meK]}$PEPTIDE1,PEPTIDE1,1:R1-9:R2$$$V2.0; SMILES CC(C)C[C@@H]1NC(=O)[C@H](CC(=O)O)NC(=O)CNC(=O)[C@H](CCCNC(=N)N)NC(=O)[C@H](Cc2ccccc2)NC(=O)[C@H](CCCCN)N(C)C(=O)[C@H]2CCCN2C(=O)[C@H](Cc2ccc(O)cc2)NC(=O)[C@H](C)NC1=O)
IC50 (αvβ6-integrin [2]; [5]): 0.39 nM

IC50 (αvβ6-integrin [3]): 0.17 nM
IC50 (αvβ8-integrin): 32 nM
αvβ6-selectivity over αvβ8 (αvβ8-integrin): 188
IC50 (αvβ3-integrin): 424 nM
αvβ6-selectivity over αvβ3 (αvβ3-integrin): 2494
αvβ6-selectivity over α5β1 (α5β1-integrin): 1329
Compound: C#CCCC(=O)NCCCC[C@H]1C(=O)N[C@@H](Cc2ccccc2)C(=O)N[C@@H](CCCNC(=N)N)C(=O)NCC(=O)N[C@@H](CC(=O)O)C(=O)N[C@@H](CC(C)C)C(=O)N[C@@H](C)C(=O)N[C@@H](Cc2ccccc2)C(=O)N2CCC[C@@H]2C(=O)N1C [c[FRGDLAFp(NMe)K(pentynoic amide)], reference compound]

Compound: OC[C@H]1OC(O)[C@H]([18F])[C@@H](O)[C@@H]1O (some centres unmarked) [[^18F]FDG]
SUVmax around 7-week-old tracheostoma (inflammation) ([4]; patient #2, 61-62 min p.i.): 10.2
SUVmax prelaryngeal cutaneous metastasis of parotideal adenocarcinoma ([4]; patient #3, 67-71 min p.i.): 6.1
metabolic tumor volume ([4]; patient #3, prelaryngeal cutaneous metastasis): 2.2 cm^3

IC50 (αvβ6-integrin [3]): 0.84 nM
IC50 (αvβ8-integrin): 26 nM
αvβ6-selectivity over αvβ8 (αvβ8-integrin): 31
IC50 (αvβ3-integrin): 219 nM
αvβ6-selectivity over αvβ3 (αvβ3-integrin): 261
IC50 (α5β1-integrin; 95% confidence interval in parentheses): 150 nM
αvβ6-selectivity over α5β1 (α5β1-integrin): 179
Compound: C#CCCC(=O)NCCCC[C@H]1C(=O)N[C@@H](Cc2ccc(O)cc2)C(=O)N[C@@H](CCCNC(=N)N)C(=O)NCC(=O)N[C@@H](CC(=O)O)C(=O)N[C@@H](CC(C)C)C(=O)N[C@@H](C)C(=O)N[C@@H](Cc2ccc(O)cc2)C(=O)N2CCC[C@@H]2C(=O)N1C [Tyr2-alkyne, c[YRGDLAYp(NMe)K(pentynoic amide)]]

Compound: c[YRGDLAFp(NMe)K] (YRGDLAFPK; HELM PEPTIDE1{Y.R.G.D.L.A.F.[dP].[meK]}$PEPTIDE1,PEPTIDE1,1:R1-9:R2$$$V2.0; SMILES CC(C)C[C@@H]1NC(=O)[C@H](CC(=O)O)NC(=O)CNC(=O)[C@H](CCCNC(=N)N)NC(=O)[C@H](Cc2ccc(O)cc2)NC(=O)[C@H](CCCCN)N(C)C(=O)[C@H]2CCCN2C(=O)[C@H](Cc2ccccc2)NC(=O)[C@H](C)NC1=O)
IC50 (αvβ6-integrin [2]; [5]): 0.4 nM

Reference: publication PMC8460406, “PET/CT imaging of head-and-neck and pancreatic cancer in humans by targeting the “Cancer Integrin” αvβ6 with Ga-68-Trivehexin” (European Journal of Nuclear Medicine and Molecular Imaging, 2021)
